Assay results published in patent US10590118B2, “Bicyclic heterocyclic derivatives as bromodomain inhibitors” (Orion Corporation, priority 2014, dated 2020).
pIC50: −log10 of the molar value.

target: T1, Bet bromodomain protein (BRD4) (Homo sapiens, UniProt O60885); experiment: Bet bromodomain TR-FRET assay; assay type: binding; conditions: 300 nM acetyl histone peptide substrate, results given as Group A/B/C
T1 construct: made in house
In short: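 In-house BRD4 protein with 300 nM acetyl histone peptide in 50 mM HEPES pH 7.5, 50 mM NaCl, 500 μM CHAPS; 30 min RT, then serially diluted compound for 30 min RT. Eu-streptavidin (2 nM) and XL-665 antibody (10 nM) added for 30 min; 665/615 nm ratio read, IC50 from sigmoid dose-response fit.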

Row | SMILES | pIC50
1 | COc1cc2c(ccc(=O)n2Cc2ccc(-c3cnn(C)c3)cn2)cc1-c1c(C)noc1C [Compound 98, 6-(3,5-dimethylisoxazol-4-yl)-7-methoxy-1-((5-(1-methyl-1H-pyrazol-4-yl)pyridin-2-yl)methyl)quinolin-2(1H)-one] | ≥ 6.00
2 | COc1cc2c(cc1-c1c(C)noc1C)cc(C(O)(O)C(F)(F)F)c(=O)n2Cc1ccccn1 [Compound 104, 6-(3,5-dimethylisoxazol-4-yl)-7-methoxy-1-(pyridin-2-ylmethyl)-3-(2,2,2-trifluoro-1,1-dihydroxyethyl)quinolin-2(1H)-one] | ≥ 6.00
3 | COc1cc2c(cc1-c1c(C)noc1C)c(C#N)c(C)c(=O)n2CCc1ccc(Cl)cc1 [Compound 105, 1-(4-chlorophenethyl)-6-(3,5-dimethylisoxazol-4-yl)-7-methoxy-3-methyl-2-oxo-1,2-dihydroquinoline-4-carbonitrile] | < 5.52
4 | COc1cc2c(cc1-c1c(C)noc1C)cc(CC#N)c(=O)n2CCc1ccc(Cl)cc1 [Compound 106, 2-(1-(4-chlorophenethyl)-6-(3,5-dimethylisoxazol-4-yl)-7-methoxy-2-oxo-1,2-dihydroquinolin-3-yl)acetonitrile] | ≥ 6.00

The next lines start with the values.

Row | pIC50 | SMILES
5 | ≥ 6.00 | COc1cc2c(cc1-c1c(C)noc1C)cc(CO)c(=O)n2Cc1ccccn1 [Compound 96, 6-(3,5-dimethylisoxazol-4-yl)-3-(hydroxymethyl)-7-methoxy-1-(pyridin-2-ylmethyl)quinolin-2(1H)-one]
6 | ≥ 6.00 | COc1cc2c(cc1-c1c(C)noc1C)cc(CF)c(=O)n2Cc1ccccn1 [Compound 97, 6-(3,5-dimethylisoxazol-4-yl)-3-(fluoromethyl)-7-methoxy-1-(pyridin-2-ylmethyl)quinolin-2(1H)-one]
